1 compound from patent publication US20160220710A1, “COMPOSITIONS AND METHODS FOR DELIVERING PHARMACEUTICAL AGENTS” (THE REGENTS OF THE UNIVERSITY OF MICHIGAN, priority 2015, published 2016) can be followed below.

Type in all cases: cell-based, murine
For series [1], the system named is RAW 264.7 cells. Kind of series: MitoTracker Red live cell staining (mitochondrial membrane potential). Conditions: 10 μM. The protocol: Cells were cultured with CFZ or CLDI media for 24 h in chamber slides (Lab Tek) and stained with 150 nM of MitoTracker Red CMXRos (MTR, Life Technologies) in fresh media for 45 min, and then NucBlue Live Cell Stain (Life Technologies) was applied for 10 min for nuclear staining. After incubation, extracellular MTR and NucBlue were washed twice with DPBS and the cells were visualized on a Nikon Eclipse Ti fluorescence microscope (Japan) using Texas Red (Mitotracker) and DAPI (NucBlue) filters. Real-time live cell images were captured every 10 sec for 30 min with the same microscope and video was created using the Nikon Elements software. For confocal imaging of intracellular CLDIs, FM 1-43 (Life Technologies) was used at 3.5 μM (15 min at 37° C.) for membrane staining followed by NucBlue (10 min). After washing with DPBS, cells were visualized using laser-scanning confocal microscopy (Olympus Fluoview 500) fitted with argon (FITC) and HeNe Red lasers (Cy5). Images were taken along the z-axis with a 60× objective at 0.25 μm intervals and the composite Z-stack images were created using the Nikon Elements software.

The test system of series [2] is IL-1RA. Kind of series: IL-1RA ELISA. Conditions: RAW 264.7 cells, 24 h. The procedure:
(§1) The murine macrophage cell line RAW 264.7 was purchased from ATCC (Manassas, Va.) and maintained in DMEM (Life Technologies, Carlsbad, Calif.) supplemented with 10% FBS. Soluble CFZ or isolated CLDIs were added at various concentrations in DMEM with 5% FBS to 6-well plates containing 4×10^5 cells/well and incubated (24 h at 37° C. and 5% CO2). Culture supernatants were harvested at 24 h, centrifuged (1500×g for 5 min), and stored (−20° C.) in frozen aliquots prior to analysis. For experiments involving TLR stimulation, cells were washed twice with pre-warmed DPBS to remove extracellular, non-phagocytosed CLDIs or CFZ, and then the cells were serum-starved for 18 h in DMEM. Supernatants were collected from unstimulated cells and cells stimulated with 200 ng/ml Pam3 or 1 μg/ml LPS in DMEM.
(§2) The media of cells with or without 6 h TLR stimulation by Pam3 or LPS was harvested, and TNFα and IL-1RA levels were measured by ELISA (Duoset, R&D Systems, Minneapolis, Minn.) in duplicate wells according to the manufacturer's instructions. The cytokine concentrations were expressed as picogram per milligram of cell lysate. Experiments were repeated three times and values are expressed as the mean±SD.
A general note: An ELISA detects its analyte on a solid surface through an enzyme-linked reagent.

Series [3] concerns TLR4. Kind of series: TNFα ELISA after LPS stimulation. The following applies: Mus musculus, read-out: inhibition of TNFα production. The protocol:
as §1, §2

The test system of series [4] is NF-κB (p65). Kind of series: p65 nuclear translocation immunofluorescence. The protocol:
as §1, with “Supernatants were collected from unstimulated cells and cells stimulated with 200 ng/ml Pam3 or 1 μg/ml LPS in DMEM.” left out
Brightfield and fluorescence (DAPI, FITC, Texas Red and Cy5) images were captured using the Nikon Eclipse Ti (Japan) inverted microscope equipped with a Nikon Digital Sight DS-Fi2 camera (Japan) for brightfield and Photometrics Coolsnap Myo camera (Tucson, Ariz.) for fluorescence. […] For determining the ratio of nucleus-to-cytoplasm p65 fluorescence, ImageJ was used following previously described methods (Fuseler, et al., Microsc. Microanal. 2006, 12, 269-276; Noursadeghi, M. et al., J. Immunol. Methods 2008, 329, 194-200). The average volume of CLDIs was calculated using the area, Feret max and min values of each CLDI acquired from ImageJ. […]

In general, inhibition refers to the percentage by which the read-out fell short of the control. Turning to `CC(C)/N=c1\cc2n(-c3ccc(Cl)cc3)c3ccccc3nc-2cc1Nc1ccc(Cl)cc1` [CFZ, 3-(p-chloroanilino)-10-(p-chlorophenyl)-2, 10-dihydro-2-isopropyliminophenazine], in series [1], the “mitochondrial membrane potential (Mitotracker Red staining)” value is given as “diffuse cytoplasmic MTR staining, indicative of mitochondrial membrane depolarization” and the “nuclear MTR signal vs untreated cells” value was 4 fold. Also, the IL-1RA secretion entry in series [2] is given as “did not affect IL-1RA secretion”. Further, the inhibition at 2 µM in series [3] (2 μM) stood at 51.2%. In addition, in series [3] (4 μM), the inhibition at 4 µM was found to be 76.5%. For the same compound, the p65 nuclear translocation result in series [4] (LPS stimulation, 3 h, 4 μM soluble CFZ or 40 μM CLDI) is “reduced p65 translocation in response to LPS”. In series [4] (naïve, no stimulation), the p65 nuclear translocation result was “did not induce nuclear translocation of p65”.
